Reference: patent publication US7166611B2, “Pharmaceutical compositions having appetite suppressant activity” (priority 1997, dated 2007)

Key:
young female rats = experiment: Oral Dose Anorectic Test, three consecutive days; type: in vivo, rat
Experimental: Animals were allocated to treatment groups using randomisation tables. Each treatment group consisted of three animals, with 6 animals in the control group. The test sample was dosed to young female rats with body weight 100–150 g at acclimatisation, for three consecutive days. Animals were identified by means of metallic ear tags and KMnO4 skin markings for easy identification. Animals were housed individually in standard rodent polycarbonate cages, and water and powdered commercial rodent pellets were available ad libitum. Water and food intakes were measured and calculated for each day. In order to find the minimum effective dose of the test sample, five doses were tested. Treatment was by oral gavage, with the test sample suspended in potato starch.
The test substance was compound (1), a white granular powder prepared from an extract from plant material in accordance with the invention, and the measured quantity of the test sample was mixed with prepared potato starch and dosed. Mixing with potato starch took place immediately before dosing on each day. Before withdrawal of the dosing volume for each animal, the suspensions were mixed thoroughly using a Vortex.
A range of five doses was tested, with a control group 15 receiving only the carrier substance.

rats = experiment: Bioassay of chromatographic fractions for appetite suppressant activity; type: in vivo, rat; conditions: bioassay of fractions from silica gel chromatography
Excerpt: The extract may be prepared from plant material such as the stems and roots of said plants of the genus Trichocaulon or of the genus Hoodia. The genus Trichocaulon and the genus Hoodia include succulent plants growing in arid regions such as are found in Southern Africa. In one application of the invention, the active appetite suppressant extract is obtained from the species Trichocaulon piliferum. The species Trichocaulon officinale may also be used to provide an active appetite suppressant extract. In another application of the invention, the active appetite suppressant extract may be obtained from the species Hoodia currorii, Hoodia gordonii or Hoodia lugardii.
The partially purified active extract may be dissolved in methanol, and may be further fractionated by column chromatography, employing silica gel as an adsorption medium and a chloroform/30% methanol mixture as an eluent. A plurality of different fractions may be obtained, and each may be evaluated, by suitable bioassaying procedures, to determine the appetite suppressant activity thereof.
A fraction having appetite suppressant activity may preferably be further fractionated such as by column chromatography using silica gel as an adsorption medium and a 9:1 chloroform:methanol solvent, and the resultant sub-fractions bioassayed for their appetite suppressant activity. […]

C/C=C(\C)C(=O)O[C@@H]1CC2C(CC=C3C[C@@H](OC4CC(OC)C(OC5CC(OC)C(OC6OC(C)C(O)C(OC)C6O)C(C)O5)C(C)O4)CC[C@@]32C)[C@@]2(O)CC[C@H](C(C)=O)[C@@]12C (stereo partly drawn) [Compound (1), 3-0-[-β-D-thevetopyranosyl-(1→4)-β-D-cymaropyranosyl-(1→4)-β-D-cymaropyranosyl]-12β-0-tigloyloxy-14-hydroxy-14β-pregn-5-en-20-one]
body mass (young female rats; 12.50 mg/kg group, oral): Actual loss in body mass | health of the animals (young female rats; 6.25–50.00 mg/kg oral gavage, three consecutive days): Treatment did not affect the health of the animals | liver at post-mortem examination (young female rats; all dose groups 6.25–50.00 mg/kg oral): friable livers | mean body mass gain over the total study period (young female rats; all dose groups 6.25–50.00 mg/kg oral, three consecutive days): significantly reduced mean body mass gain | Respiratory rate (young female rats; any dose group 6.25–50.00 mg/kg oral): in none of the animals in any dose group was significantly effected | water consumption (young female rats; higher dose groups, oral, three consecutive days): increased water consumption | food intake and body mass gain (young female rats; lowest dose group 6.25 mg/kg oral): Reduced food intake and reduced body mass gain | appetite suppressive action (young female rats; lowest dose tested 6,25 mg/kg oral): has appetite suppressive action | appetite suppressant activity (rats): found to have appetite suppressing activity
